Patent US4760180A, “N-terminally substituted dipeptide amides” (priority 1986, dated 1988)
Read-outs that look alike come from different tables or passages of the source.

Columns and labels:
[1] = biological target: opiate receptors isolated from rat brain; assay type: binding
Description: Opiate Binding Assay. The test compounds were evaluated for their ability to displace the binding of ^3 H-Naloxone to opiate receptors isolated from rat brain. Male rats [Crl CD(SD)BR] obtained from Charles River Laboratories (Portage, Mich.) were sacrificed by cervical dislocation. A purified homogenate of receptor membranes was prepared from the brains according to the method described by Chang and Cuatrecasas. (K.-J. Chang and P. Cuatrecasas. Multiple Opiate Receptors: Enkephalins And Morphine Bind To Receptors Of Different Specificity. J. Biol. Chem. 254, 2610-2618 (1979).) The brains were homogenized in 10 volumes of 0.32M sucrose and centrifuged twice at 6,000xg for 15 minutes. Following centrifugation of the supernatants at 40,000xg for 30 minutes, the pellets were resuspended in 5mM Tris-HCl and then centrifuged at 6,000xg. The supernatant was centrifuged at 40,000xg. This resuspended pellet (5mM Tris HCl) was centrifuged twice. The final pellet was resuspended in 2 volumes of 50 mM tris HCl (pH 7.4). The homogenate was assayed for protein content according to the method of Itzhaki and Gill. (R. F. Itzhaki and D. M. Gill. A Micro-Biuret Method for Estimating Proteins. Anal. Biochem. 9, 401-410 (1964).
The binding of the test compounds to the receptor membrane preparation was measured using a modification of the method of Pert and Snyder. (C. B. Pert and S. H. Snyder. Properties of Opiate-Receptor Binding in Rat Brain. Proc. Natl. Acad. Sci. 70, 2243-2247 (1973). The receptor assay was run using final concentrations of 1 nM ^3 -H-Naloxone and 0.5 mg/ml of homogenate protein.
Levorphanol (1×10^-5 M) was used as the displacer for non-specific binding. Final concentration of the test compounds was 10^-5 M. The assay was run in 0.05M tris HCl (pH 7.4). Total assay volume was 1.0 ml.
Samples were incubated at 25° C. for 60 min., filtered over Whatman GF/C glass fiber filters and rinsed twice with 4 ml washes of ice-cold buffer. The filters were air-dried at 50° C. for 30 minutes. After drying, 10 ml of PCS was added to the vial and the radioactivity determined using a tracor analytic Mark III liquid scintillation counter with a counting efficiency of 48.
The IC50 value, the concentration of the test compounds which inhibited ^3 H-Naloxone specific binding to the opiate receptor by 50, were obtained from log-logit plots of concentration-response curves.

[2] = system: phenylbenzoquinone-induced writhing in mice; test: Writhing assay (phenylbenzoquinone); assay type: in vivo; conditions: 30 min before phenylbenzoquinone i.p.; for Writhing Mouse Oral: screening dose 10 mg/kg p.o. (intragastric); for Writhing Mouse Subc.: screening dose 10 mg/kg s.c.
Description: Writhing assay. Male Charles River albino mice (CD-1/HAM/1LR) weighing between 20 and 30 grams were used. Thirty minutes after subcutaneous or intragastric administration of the test compound (0.1 ml/10 gram body weight), 0.025(w/v) phenylbenzoquinone was injected intraperitoneally (0.1 ml/10 gram body weight). Five minutes later, each mouse was placed in a large glass beaker and the number of writhes that occurred in the subsequent ten minutes is counted. A writhe consisted of dorsoflexion of the back, extension of the hindlimbs, and strong contraction of the abdominal musculature. The test compound was considered to have produced analgesia in a mouse if the number of writhes elicited by phenylbenzoquinone was equal to or less than one-half the median number of writhes recorded for the saline-treated group that day. The results were expressed as the number of mice (out of a possible ten) in which the test compound produced analgesia. […] If the initial test dose of 10 mg/kg inhibited writhing in greater than 6 of IO mice, the effect of additional doses was evaluated and an ED50 value was calculated using a maximum likelihood function.

rat = conditions: injected directly into the brain of the rat; Belluzi et al., Nature 260, 625 (1976); cited from earlier work
[3] = inhibition of 1 nM 3H-Naloxone specific binding, rat brain membranes, screening concentration 10^-5 M

Molecule: COc1cc(C)c(C[C@H](N)C(=O)N[C@H](C)C(=O)NCCCc2ccccc2)c(C)c1 [Example 4, 0,2,6-trimethyltyrosyl-N-(3-phenylpropyl)-D-alaninamide]
- IC50 [1, 3]: 75 nM
- Writhing Mouse Oral [2]: Active
- Writhing Mouse Subc. [2]: Active

Molecule: Cc1cc(C)c(C[C@H](N)C(=O)N[C@H](C)C(=O)NCCCc2ccccc2)c(C)c1.Cl [Example 25, 2,4,6-trimethylphenylalanyl-N-(3-phenylpropyl)-D-alaninamide, monohydrochloride]
- IC50 [1, 3]: 2000 nM
- Writhing Mouse Oral [2]: Inactive
- Writhing Mouse Subc. [2]: Active

Molecule: CNC(Cc1c(C)cc(OCc2ccccc2)cc1C)C(=O)N[C@H](C)C(=O)NCCCc1ccccc1.Cl (mixture of isomers) [Example 12, N,2,6-trimethyl-0-(phenylmethyl)-DL-tyrosyl-N-(3-phenylpropyl)-D-alaninamide, monohydrochloride]
- IC50 [1, 3]: 3600 nM
- Writhing Mouse Oral [2]: Active
- Writhing Mouse Subc. [2]: Active

Molecule: Cc1cc(O)cc(C)c1CC(N)C(=O)N(C)[C@H](C)C(=O)NCCCc1ccccc1.Cl (mixture of isomers) [Example 15, 2,6-dimethyl-DL-tyrosyl-Nα-methyl-N-(3-phenylpropyl)-D-alaninamide, monohydrochloride]
- IC50 [1, 3]: 0.6 nM
- Writhing Mouse Oral [2]: Active
- Writhing Mouse Subc. [2]: Active

Molecule: CN[C@@H](Cc1c(C)cc(O)cc1C)C(=O)N[C@H](C)C(=O)NCCCc1ccccc1.CN[C@@H](Cc1c(C)cc(O)cc1C)C(=O)N[C@H](C)C(=O)NCCCc1ccccc1.CN[C@@H](Cc1c(C)cc(O)cc1C)C(=O)N[C@H](C)C(=O)NCCCc1ccccc1.CN[C@@H](Cc1c(C)cc(O)cc1C)C(=O)N[C@H](C)C(=O)NCCCc1ccccc1.Cl.Cl.Cl.Cl.Cl [Example 14, N,2,6-trimethyltyrosyl-N-(3-phenylpropyl)-D-alaninamide, hydrochloride (4:5)]
- IC50 [1, 3]: 140 nM
- Writhing Mouse Oral [2]: Inactive
- Writhing Mouse Subc. [2]: Active

Molecule: 0-ethyl-2,6-dimethyl-DL-tyrosyl-N-(3-phenylpropyl)-D-alaninamide, acetate (salt), hydrochloride (4:3:5; [Example 5]
- IC50 ([1]; read-out: Opiate Binding IC50): 130 nM
- Writhing Mouse Oral [2]: Inactive
- Writhing Mouse Subc. [2]: Active

Molecule: Cc1cc(OCc2ccccc2)cc(C)c1C[C@H](N)C(=O)N[C@H](C)C(=O)NCCCc1ccccc1.Cl [Example 27, 2,6-dimethyl-O-(phenylmethyl)-L-tyrosyl-N-(3-phenylpropyl)-D-alaninamide, monohydrochloride]
- IC50 [1, 3]: 360 nM
- Writhing Mouse Oral [2]: Active
- Writhing Mouse Subc. [2]: Active

Molecule: COc1cc(C)c(CC(N)C(=O)N[C@H](C)C(=O)NCCCc2ccccc2)c(C)c1.Cl (mixture of isomers) [Example 2, 0,2,6-trimethyl-DL-tyrosyl-N-(3-phenylpropyl)-D-alaninamide, monohydrochloride]
- IC50 [1, 3]: 290 nM
- Writhing Mouse Oral [2]: Active
- Writhing Mouse Subc. [2]: Active

Molecule: methionine enkephalin
- analgesic activity (rat): weak, fleeting analgesic activity

Molecule: Cc1cc(OC(C)C)cc(C)c1C[C@H](N)C(=O)N[C@H](C)C(=O)NCCCc1ccccc1.Cc1cc(OC(C)C)cc(C)c1C[C@H](N)C(=O)N[C@H](C)C(=O)NCCCc1ccccc1.Cc1cc(OC(C)C)cc(C)c1C[C@H](N)C(=O)N[C@H](C)C(=O)NCCCc1ccccc1.Cc1cc(OC(C)C)cc(C)c1C[C@H](N)C(=O)N[C@H](C)C(=O)NCCCc1ccccc1.Cl.Cl.Cl.Cl.Cl [Example 6, 2,6,dimethyl-0-(1-methylethyl)tyrosyl-N-(3-phenylpropyl)-D-alaninamide, hydrochloride (4:5)]
- IC50 ([1]; read-out: Opiate Binding IC50): 47 nM
- Writhing Mouse Oral [2]: Inactive
- Writhing Mouse Subc. [2]: Inactive

Molecule: Cc1cc(O)cc(C)c1CC(N)C(=O)N[C@H](C)C(=O)N(C)CCCc1ccccc1.Cl (mixture of isomers) [Example 16, 2,6-dimethyl-DL-tyrosyl-N-methyl-N-(3-phenylpropyl)-D-alaninamide, monohydrochloride]
- IC50 [1, 3]: 300 nM
- Writhing Mouse Oral [2]: Inactive
- Writhing Mouse Subc. [2]: Active

Molecule: COc1cc(C)c(C[C@H](N)C(=O)N[C@H](C)C(=O)NCCCc2ccccc2)c(C)c1 [Example 3, 0,2,6-trimethyltyrosyl-N-(3-phenylpropyl)-D-alaninamide]
- IC50 [1, 3]: 420 nM
- Writhing Mouse Oral [2]: Active
- Writhing Mouse Subc. [2]: Active

Molecule: Cc1cc(OCc2ccccc2)cc(C)c1C[C@@H](N)C(=O)N[C@H](C)C(=O)NCCCc1ccccc1.Cl [Example 28, 2,6-dimethyl-O-(phenylmethyl)-D-tyrosyl-N-(3-phenylpropyl)-D-alaninamide, hydrochloride]
- IC50 [1, 3]: 22 nM
- Writhing Mouse Oral [2]: Active
- Writhing Mouse Subc. [2]: Active

Molecule: CN[C@@H](Cc1c(C)cc(OC)cc1C)C(=O)N[C@H](C)C(=O)NCCCc1ccccc1.Cl [Example 11, N,0,2,6,-tetramethyltyrosyl-N-(3-phenylpropyl)-D-alaninamide, monohydrochloride]
- IC50 [1, 3]: 610 nM
- Writhing Mouse Oral [2]: Active
- Writhing Mouse Subc. [2]: Active

Molecule: COc1ccc(C[C@H](N)C(=O)N[C@H](C)C(=O)NCCCc2ccccc2)cc1.Cl [Example 9, 0-methyl-L-tyrosyl-N-(3-phenylpropyl)-D-alaninamide, monohydrochloride]
- Opiate Binding IC50 [1]: Inactive
- Writhing Mouse Oral [2]: Active
- Writhing Mouse Subc. [2]: Active

Molecule: 2,6,dichlorotyrosyl-N-(3-phenylpropyl)-D-alaninamide, monohydrochloride [Example 23]
- IC50 [1, 3]: 7.6 nM
- Writhing Mouse Oral [2]: Active
- Writhing Mouse Subc. [2]: Active

Molecule: CN[C@@H](Cc1c(C)cc(O)cc1C)C(=O)N[C@H](C)C(=O)NCCCc1ccccc1.Cl [Example 13, N,2,6-trimethyltyrosyl-N-(3-phenylpropyl)-D-alaninamide, monohydrochloride]
- IC50 ([1]; inhibition of 1 nM 3H-Naloxone specific binding, rat brain membranes, screening concentration 10^-5 M, monohydrochloride): 1800 nM
- Writhing Mouse Oral [2]: Inactive
- Writhing Mouse Subc. [2]: Active
